According to article PMC12132910, “A Novel Inhibitor against the Bromodomain Protein 1 of the Malaria Pathogen Plasmodium Falciparum” (Chemmedchem, 2025):
Several values for one entry are separate records, joined by “and”; a condition that tells them apart may be missing. Identical values can stand only once.

Test system: P. falciparum NF54
Test: Malaria SYBR green I based fluorescence assay, dose response, NF54
Format: cell-based
Details: Plasmodium falciparum, blood stage culture, 72 hours, mean (SD), 1 to 3 biological replicates
Procedure: (§1) The BRDi compounds had modest activity against all three strains (Table 2 ). […]
(§2) Shield1. Parasites were propagated in human red blood cells (blood group 0+) obtained from the Bavarian Red Cross service (BRK) and cultivated under standard conditions in RPMI 1640 (ThermoFisher) supplemented with 0.5% Albumax
(§3) (ThermoFisher), 20 µg/ml Gentamycin, 25 mM Hepes (pH 7.3), and 0.02% hypoxanthine in an atmosphere of 1% O2, 5% CO2, 94% N2.
(§4) Malaria SYBR green I based fluorescence assay
(§5) SYBR Green I based fluorescence assays to determine dose-response curves were performed essentially as described previously (Leidenberger et al., 2017). Briefly, parasite cultures were diluted to 1% ring stage parasitemia and cultivated at 2.5% haematocrit in 96 well plates in the presence of serial half-log dilutions of the compounds ranging from 100 µM to 10 nM or DMSO (dimethyl sulfoxide) corresponding to the highest concentration (0.1%). Chloroquine (C6628, Sigma-Aldrich) was used as control that was not expected to target PfBDP1 and was titrated from 5 µM to 1.6 nM. After 72 hours, cultures were lysed in lysis buffer (20 mM Tris-HCl, 5 mM EDTA, 0.008% saponin (Sigma-Aldrich), 0.08% Triton X (Sigma-Aldrich), 1:10,000 SYBR Green I dye (Invitrogen)) and fluorescence was measured in a Fluoroskan Ascent FL reader (excitation: 485 nm, emission: 530 nm). […]

Compound	EC50
Cc1cc(C(N)=O)cc(C)c1-c1[nH]c(C)c2c1CCCCC2=O [RMM25, 3,5-Dimethyl-4-(3-methyl-4-oxo-2,4,5,6,7,8-hexahydrocyclohepta[c]pyrrol-1-yl)benzamide]	12.2 µM

Test system: 3D7::PfBDP1HADD parasites
Test: Dose-response assay in conditional PfBDP1 knockdown parasites
Format: cell-based, Plasmodium falciparum
Details: 10 nM Shld1 compared to 500 nM Shld1, 72 h
Source text: To validate whether the compounds indeed target the BRD of PfBDP1, we utilized a conditional KD system to modulate the expression levels of PfBDP1 in situ.^[ [15] ^] In the 3D7::PfBDP1HADD line, PfBDP1 is fused at its C‐terminus to a ligand‐regulatable FKBP destabilization domain (DD) that targets the fusion protein for proteasomal degradation but can be stabilized by the Shield1 ligand, and 3xHA epitope tags for detection ^11. […] In contrast, the EC50 of chloroquine was unchanged.
A) Western Blot analysis of 3D7::PfBDP1HADD parasites cultivated in the presence of Shield1 (Shld) in concentrations ranging from 0 to 500 nM over 72 h in duplicates. PfBDP1HADD was detected by anti‐HA antibodies. Histone 3 (H3) was probed as a loading control. […] Growth was determined relative to DMSO controls for each condition after 72 h of culture. N = 4 replicates. […] Binding of PfBDP1HA to target loci was calculated as enrichment relative to histone H3 ChIP performed in parallel. Shown are individual values and median of one representative experiment with technical duplicates. Paired t‐test, p = 0.0015. […]
resistant strain K1, MRA-159, contributed by Dennis E. Kyle. The NF54::PfBDP1HA parasite line was generated by transfection of NF54 parasites with the plasmid pSLI_PfBDP1_3xHA and selection linked integration of the construct in the presence of G418[21]. […]
as §4
SYBR Green I based fluorescence assays to determine dose-response curves were performed essentially as described previously (Leidenberger et al., 2017). […] After 72 hours, cultures were lysed in lysis buffer (20 mM Tris-HCl, 5 mM EDTA, 0.008% saponin (Sigma-Aldrich), 0.08% Triton X (Sigma-Aldrich), 1:10,000 SYBR Green I dye (Invitrogen)) and fluorescence was measured in a Fluoroskan Ascent FL reader (excitation: 485 nm, emission: 530 nm). […]

Compound	change of sensitivity (dose-response, EC50) under partial PfBDP1 knockdown
Cc1cc(C(N)=O)cc(C)c1-c1[nH]c(C)c2c1CCCCC2=O [RMM25, 3,5-Dimethyl-4-(3-methyl-4-oxo-2,4,5,6,7,8-hexahydrocyclohepta[c]pyrrol-1-yl)benzamide]	moderately increased sensitivity
CCN(CC)CCCC(C)Nc1ccnc2cc(Cl)ccc12 (centres unmarked) [chloroquine, Chloroquine, reference compound]	unchanged

Test system: P. falciparum 3D7
Test: Malaria SYBR green I based fluorescence assay, dose response, 3D7
Format: cell-based
Details: Plasmodium falciparum, blood stage culture, 72 hours, mean (SD), 1 to 3 biological replicates
Procedure: as §1, §2, §3, §4, §5

Compound	EC50
Cc1cc(C(N)=O)cc(C)c1-c1[nH]c(C)c2c1CCCCC2=O [RMM25, 3,5-Dimethyl-4-(3-methyl-4-oxo-2,4,5,6,7,8-hexahydrocyclohepta[c]pyrrol-1-yl)benzamide]	19 µM

Molecular target: PfBDP1-BRD (Plasmodium falciparum, UniProt Q8IJ72)
Test: Isothermal titration calorimetry (ITC) with PfBDP1-BRD
Format: binding
Details: 25 °C, PBS pH 7.4, read-out: K D
Procedure: and incubated at 37 °C and 180 rpm until an OD600 of ~2.5. The culture was cooled to 18 °C, induced with 0.2 mM IPTG, and incubated for 16 hours overnight. Cells were harvested by centrifugation (Beckman Coulter Avanti J-26 XP, Rotor: JLA 8.100 Rotor) at 5000 x g for 15 min at 4 °C.
The cell pellet was resuspended in PBS (1:3 w/v). The suspension was lysed by sonication (Branson Digital Sonifier 250; 15 min, 3 sec pulse, 10 sec pause, amplitude 70%) at 4 °C. Insoluble debris was removed by centrifugation (Beckmann Coulter Avanti-J30 I, Rotor: 30.50Ti) at 80,000 x g for 45 min at 4 °C. The lysate was then sterile-filtered (0.45 µm) and purified by […] affinity chromatography. The protein was cleaved using either PreScission Protease (PfBDP1-BRD-construct) or TEV Protease (PvBDP1-BRD-construct) separating the bromodomain from the fusion protein. Further separation of the cleaved GST tag and any remaining GST fusion protein was achieved by an additional round of GST affinity chromatography.
Specifically, we used Glutathione Sepharose High Performance (HP) resin (Cytiva, 17-5279-01). A 25 mL batch of resin was self-packed into a column, equilibrated with PBS, and used to purify GST-tagged proteins. The cleaved bromodomain, which […]
Following this step, the bromodomain protein was further purified by size exclusion chromatography using a HiLoad 26/600 Superdex 75 pg column (GE Healthcare).
Isothermal Titration Calorimetry (ITC)
Affinity was measured using a MicroCal VP-ITC microcalorimeter (Malvern Instruments). Measurements were performed at 25 °C with the ligand (0.04 mM) in PBS (Phosphate buffer saline; 137 mM NaCl, 10 mM phosphate, 2.7 mM KCl; pH 7.4) buffer present in the cell and the protein (0.4 mM) injected via a stirred syringe (351 revolutions per minute) in 5 min intervals (1 injection of 6 µL and 20 injections of 13.5 µL). Solutions were degassed prior to measurements. The first injection was discarded to account for any potential diffusion during equilibration. Automated baseline correction and peak integration were conducted using NITPIC[1,2]. Analysis, fitting, and thermodynamic calculations were performed using a binary interaction model in SEDPHAT[3], and plots were generated using GUSSI[4]. Confidence intervals were calculated using the “Automatic Confidence Interval Search with Projection” method in SEDPHAT. During the confidence level search, the confidence level was set to 0.99, and Simplex optimization was applied prior to Marquardt-Levenberg at each step. Error Surface Projection was performed by alternating between Simplex and Marquardt-Levenberg algorithms until convergence was achieved.
Supporting Table S1. Amino acid sequences of proteins used in this […]
PfBDP1-BRD Construct (Uniprot: Q8IJ72; Residues: 333-456)
The construct includes an N-terminal GST-tag followed by a Prescission protease cleavage site. After cleavage, the purified protein retains an additional […] sequence at […]
the N-terminus, which originates from the vector's multiple cloning site. […]

Sequence of PfBDP1-BRD (Q8IJ72 entry or part of it): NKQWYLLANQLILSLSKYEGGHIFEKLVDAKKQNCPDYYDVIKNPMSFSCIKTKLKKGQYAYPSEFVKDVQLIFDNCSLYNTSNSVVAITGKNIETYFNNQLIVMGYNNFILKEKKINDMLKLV

Compound	Kd
CNC(=O)c1ccc(-c2[nH]c(C)c3c2CCCCC3=O)cc1 [RMM16]	5.14 µM
COc1ccccc1-c1[nH]c(C)c2c1CCCCC2=O [RMM5]	7.13 µM
Cc1[nH]c(-c2ccccc2)c2c1C(=O)CCCC2 [MPM3, 3-Methyl-1-phenyl-5,6,7,8-tetrahydrocyclohepta[c]pyrrol-4(2H)-one]	10 µM and 10.4 µM
Cc1[nH]c(-c2cccc(N(C)C)c2)c2c1C(=O)CCCC2 [RMM9, 1-(3-(dimethylamino)phenyl)-3-methyl-5,6,7,8-tetrahydrocyclohepta[c]pyrrol-4(2H)-one]	8.03 µM
CC(=O)Nc1cccc(-c2[nH]c(C)c3c2CCCCC3=O)c1 [RMM10]	6.96 µM
CCc1ccccc1-c1[nH]c(C)c2c1CCCCC2=O [RMM3]	9.17 µM
Cc1[nH]c(-c2cccc(S(N)(=O)=O)c2)c2c1C(=O)CCCC2 [RMM13]	4.9 µM and 4.93 µM
Cc1[nH]c(-c2ccc(C(N)=O)cc2)c2c1C(=O)CCCC2 [RMM15]	4.49 µM
Cc1cc(C#N)cc(C)c1-c1[nH]c(C)c2c1CCCCC2=O [RMM24, 3,5-dimethyl-4-(3-methyl-4-oxo-2,4,5,6,7,8-hexahydrocyclohepta[c]pyrrol-1-yl)benzonitrile]	1.22 µM
Cc1ccc(NS(C)(=O)=O)cc1-c1[nH]c(C)c2c1CCCCC2=O [RMM20]	8.17 µM
Cc1cc(C#N)ccc1-c1[nH]c(C)c2c1CCCCC2=O [RMM22, 3-Methyl-4-(3-methyl-4-oxo-2,4,5,6,7,8-hexahydrocyclohepta[c]pyrrol-1-yl)benzonitrile]	2.34 µM
Cc1cc(C(N)=O)cc(C)c1-c1[nH]c(C)c2c1CCCCC2=O [RMM25, 3,5-Dimethyl-4-(3-methyl-4-oxo-2,4,5,6,7,8-hexahydrocyclohepta[c]pyrrol-1-yl)benzamide]	0.896 µM
Cc1[nH]c(-c2ccccc2C(F)(F)F)c2c1C(=O)CCCC2 [RMM4]	2.9 µM and 2.94 µM

Results, then the compound that gave them:

Kd	Compound
4.7 µM	Cc1[nH]c(-c2cccc(NS(C)(=O)=O)c2)c2c1C(=O)CCCC2 [RMM11]
7.45 µM	Cc1[nH]c(-c2cccc(C(N)=O)c2)c2c1C(=O)CCCC2 [MPM8]
6.7 µM and 6.74 µM	Cc1[nH]c(-c2cccc(N)c2)c2c1C(=O)CCCC2 [MPM2]
4.54 µM	Cc1[nH]c(-c2ccc(C#N)cc2)c2c1C(=O)CCCC2 [RMM18]
11.7 µM	Cc1ccc(-c2[nH]c(C)c3c2CCCCC3=O)cc1 [RMM14]
6.39 µM	Cc1[nH]c(-c2ccc(S(N)(=O)=O)cc2)c2c1C(=O)CCCC2 [RMM19]
16.9 µM	Cc1[nH]c(-c2cccc([N+](=O)[O-])c2)c2c1C(=O)CCCC2 [RMM7, 3-Methyl-1-(3-nitrophenyl)-5,6,7,8-tetrahydrocyclohepta[c]pyrrol-4(2H)-one]
3.9 µM and 3.94 µM	Cc1ccccc1-c1[nH]c(C)c2c1CCCCC2=O [RMM2]
9.16 µM	CNc1cccc(-c2[nH]c(C)c3c2CCCCC3=O)c1 [RMM8, 3-Methyl-1-(3-(methylamino)phenyl)-5,6,7,8-tetrahydrocyclohepta[c]pyrrol-4(2H)-one]
5.8 µM and 5.81 µM	Cc1[nH]c(-c2ccccc2Cl)c2c1C(=O)CCCC2 [RMM1]
42.4 µM	Cc1[nH]c(-c2ccc(C(=O)N(C)C)cc2)c2c1C(=O)CCCC2 [RMM17]
2.76 µM	Cc1[nH]c(-c2cccc(NS(C)(=O)=O)c2C)c2c1C(=O)CCCC2 [RMM21, N-(2-Methyl-3-(3-methyl-4-oxo-2,4,5,6,7,8-hexahydrocyclohepta[c]pyrrol-1-yl)phenyl)methanesulfonamide]
6.2 µM and 6.22 µM	Cc1cccc(-c2[nH]c(C)c3c2CCCCC3=O)c1 [RMM6, 3-Methyl-1-(m-tolyl)-5,6,7,8-tetrahydrocyclohepta[c]pyrrol-4(2H)-one]

Same assay, conditions: K D, 25 °C, PBS pH 7.4

Compound	Kd
Cc1[nH]c(-c2cc(N)ccc2Cl)c2c1C(=O)CCCC2 [MPM6, reference compound]	4.53 µM

Test system: P. falciparum K1 (multidrug resistant)
Test: Malaria SYBR green I based fluorescence assay, dose response, K1
Format: cell-based
Details: Plasmodium falciparum, K1, 72 h, read-out: EC50 K1
Procedure: as §1
resistant strain K1, MRA-159, contributed by Dennis E. Kyle. […]
as §2, §3, §4, §5

Compound	EC50
Cc1cc(C(N)=O)cc(C)c1-c1[nH]c(C)c2c1CCCCC2=O [RMM25, 3,5-Dimethyl-4-(3-methyl-4-oxo-2,4,5,6,7,8-hexahydrocyclohepta[c]pyrrol-1-yl)benzamide]	7.35 µM
